In patent publication US20240191267A1, “Tropane Alkaloid Transporters and Methods of Making Tropane Alkaloids Using the Same” (priority 2021, published 2024):
Several values for one entry are separate records, joined by “and”; a condition that tells them apart may be missing. Equal entries are not always repeated.

Assays:
AbLP1 = assay: Yeast toxicity assay and growth curves, AD1-8 expressing AbLP1
Excerpt: (§1) Solid lines and shaded/hatched bars respectively indicate mean and standard deviation of n=3 biologically independent samples.
(§2) Heatmap values were extracted from mean growth curves in FIG. 80.
as §1, §1
(§3) Yeast toxicity assays and growth curves. Candidate transporters for use in non-plant cells for the purpose of enhancing or modulating metabolite localization may be characterized in any suitable strain of the non-plant organism of interest. […] An example protocol for the characterization of TA transporters in yeast is provided as follows. […] Strain AD1-8 is transformed as described earlier with a low-copy plasmid harboring a constitutively expressed transporter candidate or blue fluorescent protein as negative control and a suitable auxotrophic marker, such as URA3, LEU2, TRP1, or […]. Transformants are inoculated into 1 mL of selective YNB-G media and grown overnight (˜14-18 h) at 30° C. and 460 rpm. […] Culture densities (OD600) are then measured every 30 min for 48 h in a suitable plate reader, such as a SpectraMax i3 plate reader (Molecular Devices), with chamber temperature 30° C. and orbital shaking every 30 min. […]

Strain AD1-8 = conditions: selective media
Excerpt: as §1, §2, §3

AbPUP1 = assay: Yeast toxicity assay and growth curves, AD1-8 expressing AbPUP1
Excerpt: as §1, §2, §1, §1, §3

[1] = target: T1, AbUGT (UDP-glucosyltransferase 84A27) (Atropa belladonna, UniProt A0A3B6XRM0); assay: Conversion of fed phenylpropanoids to glucosides by yeast expressing AbUGT; type: cell-based; conditions: AbUGT from low-copy plasmid in CSY1251; 500 μM substrate, 72 h, selective media
T1 construct: expressed in transfected cells; host or cells: Saccharomyces cerevisiae CSY1251 (tropine-producing, CEN.PK2-derived), low-copy plasmid
T1 sequence (A0A3B6XRM0 1-490): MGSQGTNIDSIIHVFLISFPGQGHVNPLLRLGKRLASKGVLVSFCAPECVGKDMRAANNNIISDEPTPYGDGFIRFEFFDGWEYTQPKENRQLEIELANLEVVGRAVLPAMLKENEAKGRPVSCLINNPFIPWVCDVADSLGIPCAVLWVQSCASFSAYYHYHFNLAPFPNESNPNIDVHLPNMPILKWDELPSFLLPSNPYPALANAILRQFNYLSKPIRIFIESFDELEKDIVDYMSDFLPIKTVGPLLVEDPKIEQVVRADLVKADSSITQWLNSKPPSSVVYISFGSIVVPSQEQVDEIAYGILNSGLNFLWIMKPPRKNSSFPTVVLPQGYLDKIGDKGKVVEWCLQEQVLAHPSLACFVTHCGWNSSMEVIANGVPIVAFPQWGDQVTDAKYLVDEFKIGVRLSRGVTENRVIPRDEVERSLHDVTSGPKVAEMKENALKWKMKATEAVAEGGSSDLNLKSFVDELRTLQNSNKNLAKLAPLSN

[2] = test system: UGT84A27 orthologs (AbUGT, BsUGT, DmUGT); type: cell-based, Atropa belladonna, Brugmansia sanguinea, D. metel; conditions: all three UGT orthologs, low-copy plasmids in CSY1251; 500 μM substrate, 72 h
[3] = test system: AbUGT84A27 active site mutants; assay: Conversion of fed phenylpropanoids to glucosides by yeast expressing AbUGT active site mutants; type: cell-based, Atropa belladonna; conditions: F130Y, L205F, I292Q point mutants of AbUGT in CSY1251; 500 μM substrate, 72 h
Description: FIG. 36 illustrates the substrate specificity of AbUGT84A27 active site mutants. […] AbUGT wild-type, active site mutants, or a BFP negative control were expressed from low-copy plasmids in CSY1251. Transformed cells were cultured in selective media supplemented with 500 μM PLA, CA, or FA for 72 h prior to LC-MS/MS analysis. Data represent the mean of n=3 biologically independent samples ±standard deviation.
6.1) As wild-type yeast produce only trace levels of PLA, production of this TA precursor must be increased to permit sufficient accumulation of downstream TAs. To improve PLA production, heterologous phenylpyruvate reductases (PPRs) may be expressed in the engineered host cells. PPR orthologs from E. coli, Lactobacillus, A. belladonna, and Wickerhamia fluorescens, as well as lactate dehydrogenases (LDHs) from Bacillus and Lactobacillus with reported activity on 3-phenylpyruvate (Table 1) were screened for activity in yeast by expressing each enzyme from a low-copy plasmid in CSY1251 and measuring PLA production by LC-MS/MS after 72 h of growth in selective media. […] As such, WfPPR was selected for integration into CSY1251 to make strain CSY1287. […] 6.4.2.1) Extra copies of PGM2 and UGP1 were expressed from low-copy plasmids in CSY1288 and PLA glucoside production was measured following 72 h of growth in selective media. […]

For `CN1[C@@H]2CC[C@H]1CC(OC(=O)[C@H](O)Cc1ccccc1)C2` (stereo partly shown) [littorine], the “θHM, ratio of time for half-maximal OD600 at 20 mM relative to at 0 mM” value (“θHM, ratio … at 20 mM relative to at 0 mM” below) (AbLP1; AD1-8 expressing AbLP1 from low-copy plasmid, selective media, 0-20 mM alkaloid) was ~1.1, the “θHM, ratio … at 20 mM relative to at 0 mM” value (Strain AD1-8; AD1-8 expressing BFP control from low-copy plasmid, 0-20 mM alkaloid) was ~1.0 and the “θHM, ratio … at 20 mM relative to at 0 mM” value (AbPUP1; AD1-8 expressing AbPUP1 from low-copy plasmid, selective media, 0-20 mM alkaloid) was ~1.3.
In the case of `CN1[C@@H]2CC[C@H]1C[C@@H](O)C2` [tropine], the “sensitivity to alkaloid conferred by transporter expression” value (AbLP1; AD1-8 expressing AbLP1, tropine only at 1 mM) was “not”, the “growth of AD1-8 at tested concentrations higher than 1 mM” value (Strain AD1-8; concentrations above 1 mM) was “severely retarded the growth” and the “sensitivity to alkaloid conferred by transporter expression” value (AbPUP1; AD1-8 expressing AbPUP1, tropine only at 1 mM) was “not”.
`O=C(O)/C=C/c1ccccc1` [cinnamic acid, trans-cinnamic acid] was tested, and the “percent conversion of fed phenylpropanoid to glucoside” value (shortened to “percent conversion”) [1] was ~60%.
For `O=C(O)[C@H](O)Cc1ccccc1` [PLA, (D)-3-phenyllactic acid], the “percent conversion” value [2] was < 3%, the “percent conversion” value [1] was < 3% and 2.7% and the “percent conversion” value [3] was < 3%.
